Experimental findings from ChEMBL document CHEMBL1138336, “Design and synthesis of novel and potent amide linked PPARgamma/delta dual agonists” (Bioorg Med Chem Lett, 2007) are described below.

In test [1] the target is T1, Peroxisome proliferator-activated receptor alpha (Homo sapiens, UniProt Q07869).
T1 sequence (Q07869 whole entry): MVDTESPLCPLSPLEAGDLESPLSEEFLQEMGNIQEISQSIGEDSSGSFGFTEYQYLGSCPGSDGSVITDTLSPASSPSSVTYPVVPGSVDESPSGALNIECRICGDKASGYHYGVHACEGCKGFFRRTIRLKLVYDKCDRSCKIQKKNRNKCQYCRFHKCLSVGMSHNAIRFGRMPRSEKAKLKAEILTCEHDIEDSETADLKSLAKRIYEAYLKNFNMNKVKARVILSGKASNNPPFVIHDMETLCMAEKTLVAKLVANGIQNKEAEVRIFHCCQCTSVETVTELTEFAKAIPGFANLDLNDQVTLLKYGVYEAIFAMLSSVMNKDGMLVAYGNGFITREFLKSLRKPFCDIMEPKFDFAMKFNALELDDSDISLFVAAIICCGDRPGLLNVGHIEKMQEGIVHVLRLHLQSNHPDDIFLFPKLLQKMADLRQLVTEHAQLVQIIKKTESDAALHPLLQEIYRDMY

Test [2] addresses T1, Peroxisome proliferator-activated receptor alpha. The source holds these as a separate data set.
Test [3] concerns the target T2, Peroxisome proliferator-activated receptor delta (Homo sapiens, UniProt Q03181).
T2 sequence (Q03181 whole entry): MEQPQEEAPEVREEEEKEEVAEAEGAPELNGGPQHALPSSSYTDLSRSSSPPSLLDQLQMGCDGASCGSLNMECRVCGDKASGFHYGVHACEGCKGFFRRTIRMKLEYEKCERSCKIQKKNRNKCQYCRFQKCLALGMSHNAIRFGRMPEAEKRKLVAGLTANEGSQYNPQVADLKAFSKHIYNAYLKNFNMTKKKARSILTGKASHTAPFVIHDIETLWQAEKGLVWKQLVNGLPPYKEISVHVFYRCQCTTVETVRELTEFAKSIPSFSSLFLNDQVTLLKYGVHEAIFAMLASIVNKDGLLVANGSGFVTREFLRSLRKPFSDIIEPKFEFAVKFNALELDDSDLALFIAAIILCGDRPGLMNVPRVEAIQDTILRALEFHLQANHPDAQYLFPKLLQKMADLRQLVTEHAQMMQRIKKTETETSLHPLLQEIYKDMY

Test [4] addresses T2, Peroxisome proliferator-activated receptor delta. This is another data set of the same source.
The next test is filed under the species Rattus norvegicus. In words: animal or person. It counts as functional. Particulars: ZDF, po, 168 h.

In general, IC50 refers to the concentration that gives 50% inhibition. The term EC50 denotes the concentration that produces a half-maximal response. Consider `Cc1cc(Oc2cccc(CNC(=O)c3ccc(C(F)(F)F)cc3C)c2)ccc1CCC(=O)O`, for which the concentration for half-maximal inhibition (IC50) in test [1] is greater than 10000 nM; in test [3] it was 5 nM. Further, the EC50 in test [2] came out at 2890 nM; in test [4], 33 nM.

As to `Cc1cc(Oc2cccc(CNC(=O)c3c(C)c4cc(Cl)ccc4n3C)c2)ccc1CCC(=O)O`, the IC50 was greater than 10000 nM in test [1] and 3 nM in test [3]. Besides, the EC50 in test [2] stood at 2650 nM; in test [4], 4 nM.

A word on the ED50: it is the dose at which the effect has come halfway, by size or by number of responders. High values mean a need for a large dose, low ones an effect at a small dose. In test [1], `CCc1cc(Oc2cc(F)cc([C@@H](C)NC(=O)c3c(C)c4cc(Cl)ccc4n3C)c2)ccc1CCC(=O)O` returned an IC50 of 10300 nM. The same compound registered an EC50 in test [2] of 2820 nM. This compound registered an ED50 in the test filed under Rattus norvegicus of 0.82 mg/kg.

With `Cc1cc(Oc2cccc(CNC(=O)c3cc4cc(Cl)ccc4n3C)c2)ccc1CCC(=O)O`, the IC50 was greater than 10000 nM in test [1] and 3 nM in test [3]. Also, the EC50 in test [2] was determined as 2740 nM; in test [4], 87 nM.

In test [1], `CCc1cc(Oc2cc(F)cc([C@@H](C)NC(=O)c3sc4ccc(Cl)cc4c3C)c2)ccc1CCC(=O)O` yielded an IC50 of 9340 nM.
